Measurements published in PubChem BioAssay (NCI).
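Interpolation was linear, between the two tested concentrations surrounding the appropriate level; five concentrations were tested over 48 hours in 96-well plates. GI50 is the concentration that inhibits growth by half. TGI: concentration producing complete growth inhibition.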

What was measured:
Test in all cases: NCI tumour cell line growth inhibition, 48 h
SN12C renal = tested on: SN12C renal
T-47D breast = tested on: T-47D breast
HT29 colon = tested on: HT29 colon
NCI-H522 lung = tested on: NCI-H522 lung
HOP-62 NSCLC = tested on: HOP-62 NSCLC
SK-OV-3 ovarian = tested on: SK-OV-3 ovarian
HL-60(TB) leukemia = tested on: HL-60(TB) leukemia
OVCAR-5 ovarian = tested on: OVCAR-5 ovarian
SF-539 CNS = tested on: SF-539 CNS
PC-3 prostate = tested on: PC-3 prostate
EKVX NSCLC = tested on: EKVX NSCLC
NCI-H226 lung = tested on: NCI-H226 lung
OVCAR-4 ovarian = tested on: OVCAR-4 ovarian
M14 melanoma = tested on: M14 melanoma
HCC-2998 colon = tested on: HCC-2998 colon
UACC-257 melanoma = tested on: UACC-257 melanoma
K-562 leukemia = tested on: K-562 leukemia
RXF 393 renal = tested on: RXF 393 renal
SF-295 CNS = tested on: SF-295 CNS
LOX IMVI melanoma = tested on: LOX IMVI melanoma
A498 renal = tested on: A498 renal
IGROV1 ovarian = tested on: IGROV1 ovarian
UACC-62 melanoma = tested on: UACC-62 melanoma
NCI/ADR-RES ovarian = tested on: NCI/ADR-RES ovarian
SF-268 CNS = tested on: SF-268 CNS
ACHN renal = tested on: ACHN renal
HCT-116 colon = tested on: HCT-116 colon
HS 578T breast = tested on: HS 578T breast
CAKI-1 renal = tested on: CAKI-1 renal
SK-MEL-5 melanoma = tested on: SK-MEL-5 melanoma
UO-31 renal = tested on: UO-31 renal
MDA-MB-231 breast = tested on: MDA-MB-231 breast
MOLT-4 leukemia = tested on: MOLT-4 leukemia
NCI-H23 lung = tested on: NCI-H23 lung
BT-549 breast = tested on: BT-549 breast
U251 CNS = tested on: U251 CNS
HCT-15 colon = tested on: HCT-15 colon
SW-620 colon = tested on: SW-620 colon
SK-MEL-2 melanoma = tested on: SK-MEL-2 melanoma
HOP-92 NSCLC = tested on: HOP-92 NSCLC
RPMI-8226 leukemia = tested on: RPMI-8226 leukemia
MDA-MB-435 = tested on: MDA-MB-435
KM12 colon = tested on: KM12 colon
TK-10 renal = tested on: TK-10 renal
MALME-3M melanoma = tested on: MALME-3M melanoma
SR leukemia = tested on: SR leukemia
A549 NSCLC = tested on: A549 NSCLC
OVCAR-3 ovarian = tested on: OVCAR-3 ovarian
COLO 205 colon = tested on: COLO 205 colon
SK-MEL-28 melanoma = tested on: SK-MEL-28 melanoma
SNB-19 CNS = tested on: SNB-19 CNS
786-0 renal = tested on: 786-0 renal
NCI-H460 lung = tested on: NCI-H460 lung
MCF7 breast = tested on: MCF7 breast
SNB-75 CNS = tested on: SNB-75 CNS
DU-145 prostate = tested on: DU-145 prostate
OVCAR-8 ovarian = tested on: OVCAR-8 ovarian

Structure (SMILES): O=c1cc(-c2ccc(Cl)cc2)[nH]c2ccccc12
- GI50 (SN12C renal): > 100 µM
- TGI (SN12C renal): > 100 µM
- GI50 (T-47D breast): 63.2 µM
- TGI (T-47D breast): > 100 µM
- GI50 (HT29 colon): 40.7 µM
- TGI (HT29 colon): > 100 µM
- GI50 (NCI-H522 lung): 59.6 µM
- TGI (NCI-H522 lung): > 100 µM
- GI50 (HOP-62 NSCLC): 61.4 µM
- TGI (HOP-62 NSCLC): > 100 µM
- GI50 (SK-OV-3 ovarian): 44.8 µM
- TGI (SK-OV-3 ovarian): > 100 µM
- GI50 (HL-60(TB) leukemia): 5.62 µM
- TGI (HL-60(TB) leukemia): > 100 µM
- GI50 (OVCAR-5 ovarian): > 100 µM
- TGI (OVCAR-5 ovarian): > 100 µM
- GI50 (SF-539 CNS): 52.8 µM
- TGI (SF-539 CNS): > 100 µM
- GI50 (PC-3 prostate): 35.2 µM
- TGI (PC-3 prostate): > 100 µM
- GI50 (EKVX NSCLC): 51.4 µM
- TGI (EKVX NSCLC): > 100 µM
- GI50 (NCI-H226 lung): > 100 µM
- TGI (NCI-H226 lung): > 100 µM
- GI50 (OVCAR-4 ovarian): > 100 µM
- TGI (OVCAR-4 ovarian): > 100 µM
- GI50 (M14 melanoma): 27.8 µM
- TGI (M14 melanoma): > 100 µM
- GI50 (HCC-2998 colon): > 100 µM
- TGI (HCC-2998 colon): > 100 µM
- GI50 (UACC-257 melanoma): > 100 µM
- TGI (UACC-257 melanoma): > 100 µM
- GI50 (K-562 leukemia): 7.03 µM
- TGI (K-562 leukemia): > 100 µM
- GI50 (RXF 393 renal): 45.9 µM
- TGI (RXF 393 renal): > 100 µM
- GI50 (SF-295 CNS): 41.2 µM
- TGI (SF-295 CNS): > 100 µM
- GI50 (LOX IMVI melanoma): 39.3 µM
- TGI (LOX IMVI melanoma): > 100 µM
- GI50 (A498 renal): 51.6 µM
- TGI (A498 renal): > 100 µM
- GI50 (IGROV1 ovarian): 61.5 µM
- TGI (IGROV1 ovarian): > 100 µM
- GI50 (UACC-62 melanoma): 37.4 µM
- TGI (UACC-62 melanoma): > 100 µM
- GI50 (NCI/ADR-RES ovarian): 27.1 µM
- TGI (NCI/ADR-RES ovarian): > 100 µM
- GI50 (SF-268 CNS): 83.3 µM
- TGI (SF-268 CNS): > 100 µM
- GI50 (ACHN renal): 57.8 µM
- TGI (ACHN renal): > 100 µM
- GI50 (HCT-116 colon): 32.5 µM
- TGI (HCT-116 colon): > 100 µM
- GI50 (HS 578T breast): 28.9 µM
- TGI (HS 578T breast): > 100 µM
- GI50 (CAKI-1 renal): 47.3 µM
- TGI (CAKI-1 renal): > 100 µM
- GI50 (SK-MEL-5 melanoma): 26.7 µM
- TGI (SK-MEL-5 melanoma): > 100 µM
- GI50 (UO-31 renal): > 100 µM
- TGI (UO-31 renal): > 100 µM
- GI50 (MDA-MB-231 breast): 57 µM
- TGI (MDA-MB-231 breast): > 100 µM
- GI50 (MOLT-4 leukemia): 46.8 µM
- TGI (MOLT-4 leukemia): > 100 µM
- GI50 (NCI-H23 lung): 63 µM
- TGI (NCI-H23 lung): > 100 µM
- GI50 (BT-549 breast): 29.4 µM
- TGI (BT-549 breast): > 100 µM
- GI50 (U251 CNS): 41.5 µM
- TGI (U251 CNS): > 100 µM
- GI50 (HCT-15 colon): 12.9 µM
- TGI (HCT-15 colon): > 100 µM
- GI50 (SW-620 colon): 27.7 µM
- TGI (SW-620 colon): > 100 µM
- GI50 (SK-MEL-2 melanoma): > 100 µM
- TGI (SK-MEL-2 melanoma): > 100 µM
- GI50 (HOP-92 NSCLC): 64.2 µM
- TGI (HOP-92 NSCLC): > 100 µM
- GI50 (RPMI-8226 leukemia): 46.9 µM
- TGI (RPMI-8226 leukemia): > 100 µM
- GI50 (MDA-MB-435): 2.89 µM
- TGI (MDA-MB-435): 28.5 µM
- GI50 (KM12 colon): 27.2 µM
- TGI (KM12 colon): > 100 µM
- GI50 (TK-10 renal): > 100 µM
- TGI (TK-10 renal): > 100 µM
- GI50 (MALME-3M melanoma): 53.5 µM
- TGI (MALME-3M melanoma): > 100 µM
- GI50 (SR leukemia): 4.76 µM
- TGI (SR leukemia): > 100 µM
- GI50 (A549 NSCLC): > 100 µM
- TGI (A549 NSCLC): > 100 µM
- GI50 (OVCAR-3 ovarian): 31.2 µM
- TGI (OVCAR-3 ovarian): > 100 µM
- GI50 (COLO 205 colon): 35.1 µM
- TGI (COLO 205 colon): > 100 µM
- GI50 (SK-MEL-28 melanoma): > 100 µM
- TGI (SK-MEL-28 melanoma): > 100 µM
- GI50 (SNB-19 CNS): 95.3 µM
- TGI (SNB-19 CNS): > 100 µM
- GI50 (786-0 renal): 64.8 µM
- TGI (786-0 renal): > 100 µM
- GI50 (NCI-H460 lung): 39.6 µM
- TGI (NCI-H460 lung): > 100 µM
- GI50 (MCF7 breast): 41.3 µM
- TGI (MCF7 breast): > 100 µM
- GI50 (SNB-75 CNS): 37.4 µM
- TGI (SNB-75 CNS): > 100 µM
- GI50 (DU-145 prostate): 66.4 µM
- TGI (DU-145 prostate): > 100 µM
- GI50 (OVCAR-8 ovarian): > 100 µM
- TGI (OVCAR-8 ovarian): > 100 µM
